Results taken from US8288365B2, “Phenazopyridine compounds” (Pinnacle Pharmaceuticals, Inc., priority 2008, dated 2012).
Values after ≈ are worked out from the molar mass of the structure shown. Read-outs that look alike come from different tables or passages of the source.

What was measured:
[1] = Solubility of PAP prodrugs in 0.1N HCl; type: physicochemical; settings: for solubility: simulated gastric fluid
[2] = Oral bioavailability of PAP prodrugs in rats (plasma PAP by LC-MS-MS); type: in vivo
Procedure: The oral bioavailability of PAP (phenazopyridine) prodrugs was evaluated in healthy rats. All the PAP amide (amino acid derivatives) bases were dissolved in 0.1N HCl (the same result can be obtained with a lower molarity), while the carbamates were dissolved in PEG-400 due to the very poor aqueous solubility of the PAP-carbamates. In general, all of the amino acid amide derivatives of PAP had higher water solubility than those of the PAP-carbamates. In another PK study, PAP.HCL salt, Gly-PAP.HCl salt and Gly-PAP.mesylate salt were dissolved in water, affording a clear solution in each case prior to oral administration.
(§1) The rats were fasted overnight prior to dosing. Appropriate amount of each compound was administered via gastric gavages, and at predetermined time (1, 2, 4, 6, and 24 h) blood samples were withdrawn from the rats. The whole blood was centrifuged immediately, and supernatant (plasma) was collected. The plasma samples were assayed for PAP using LC-MS-MS.

rats [3] = settings: cited from earlier work
mice = settings: i.p.; cited from earlier work
[4] = cited from earlier work
mammalian cells = settings: cited from earlier work
rats [5] = settings: doses up to 50 mg/kg/day or 110 mg/kg/day; cited from earlier work
rabbits = settings: 39 mg/kg/day; cited from earlier work
bacteria = settings: cited from earlier work
[6] = Pharmacokinetics of PAP and intact Gly-PAP in male rats after oral gavage; type: in vivo
Procedure: Pharmacokinetics for PAP and Gly-PAP (intact prodrug) were assessed in male rats following administration by oral gavage of mg/kg doses. Rats were fasted overnight prior to dosing. Blood samples were withdrawn at 0.25, 0.5, 1, 2, 4, 6, and 24 hours. The whole blood was centrifuged immediately, and supernatant (plasma) was collected. The plasma samples were assayed for PAP and Gly-PAP by LC-MS-MS.

[7] = Pharmacokinetics of PAP and intact Gly-PAP in dogs (plasma and urine) after oral gavage; type: in vivo
Procedure: Pharmacokinetics for PAP and Gly-PAP (intact prodrug) were assessed in dogs following administration by oral gavage of mg/kg doses. Blood (approximately 2 mL) was collected from a jugular vein into tubes containing lithium heparin anticoagulant predose and at 0.083, 0.25, 0.5, 1, 2, 4, 8, 12, and 24 hours postdose. Urine was collected into plastic containers surrounded by wet ice predose (−18 to 0) and 0 to 24 hours postdose. The volume of each sample was recorded. Plasma and urine samples were assayed for PAP and Gly-PAP by LC-MS-MS.

dogs = assay: Emesis in dogs after oral TID dosing; type: in vivo; settings: dogs (1 male/1 female), oral gavage TID, 24.8 mg/kg phenazopyridine base equivalent per dose
Procedure: Dogs (1 male/1 female) were dosed by oral gavage 3 times (TID), once every 8 hours, with 40 mg/kg Gly-PAP or 29 mg/kg phenazopyridine HCl (doses contained an equivalent amount of 24.8 mg/kg phenazopyridine base). […] Results showing reduction of the GI side effect of emesis are illustrated in FIG. 18.

[8] = PAP pharmacokinetics in rats after oral Gly-PAP salt forms; type: in vivo; settings: PAP in rat plasma, 2.5 mg/kg PAP base equivalent (2.8 for free base)
Procedure: The oral bioavailability of PAP (phenazopyridine) prodrugs was evaluated in healthy rats.
as §1
The pharmacokinetics of various salts of Gly-PAP were compared following oral administration to rats.

rats [9] = settings: long term (2 years); cited from earlier work
female mice = settings: cited from earlier work

For Nc1nc(NC(=O)[C@@H](N)Cc2c[nH]cn2)ccc1/N=N/c1ccccc1 [Histidinyl-PAP, Histidinyl-Phenazopyridine], the solubility [1] was > 10000 µg/mL.
For CCOC(=O)Nc1ccc(/N=N/c2ccccc2)c(N)n1 [Ethylcarbamyl-PAP, Ethylcarbamyl-Phenazopyridine], the solubility [1] was < 100 µg/mL.
In the case of Nc1nc(NC(=O)[C@@H](N)Cc2c[nH]c3ccccc23)ccc1/N=N/c1ccccc1 [Tryptophanyl-PAP, Tryptophanyl-Phenazopyridine], the solubility [1] is reported as 500 µg/mL (≈ 1250 µM) and the “Tmax” value ([2]; rats, oral) is reported as “longer”.
In the case of Nc1ccc(/N=N/c2ccccc2)c(N)n1 [Phenazopyridine], the “Acute toxicity LD50” value (rats [3]; i.p.) is given as 200 mg/kg, the “Acute toxicity LD50” value (rats [3]; oral) is given as 472 mg/kg and the “Acute toxicity LD50” value (mice) is given as 180 mg/kg. The “Excreted unchanged in urine” value ([4]; oral) was “up to 65%”, the “Single dose cleared within 24 hours” value ([4]; within 24 hours) was “approximately 90%” and the Mutagenicity and clastogenicity (mammalian cells) was “mutagenic and clastogenic”. For the same molecule, the “Effects on fertility or embryo-fetal development” value (rats [5]) was “no effects on fertility or embryo-fetal development”, the “Effects on fertility or embryo-fetal development” value (rabbits) was “no effects on fertility or embryo-fetal development” and the Mutagenicity (bacteria) was “mutagenic”.
With NCC(=O)Nc1ccc(/N=N/c2ccccc2)c(N)n1 [Gly-PAP, Glycyl-Phenazopyridine (6-N-Glycylphenazopyridine)] the solubility [1] was > 2000 µg/mL, the “AUC of phenazopyridine from 0.9 mg/kg Gly-PAP versus 2.8 mg/kg phenazopyridine HCl” value ([6]; 0.6 versus 2.5 mg/kg phenazopyridine base) was “approximately equal AUC” and the “Plasma levels of Gly-PAP relative to those for phenazopyridine from Gly-PAP” value ([6]; Gly-PAP 4.0 mg/kg) was < 5%. For the same molecule, the “Amount of phenazopyridine delivered to the urine” value ([7]; 8.1 mg/kg Gly-PAP versus equivalent phenazopyridine HCl, urine 0 to 24 hours) was “a greater amount of phenazopyridine was delivered to the urine”, the “Exposure (AUC0-24) to Gly-PAP relative to that for phenazopyridine” value ([7]; Gly-PAP 8.1 mg/kg) was “less than 10%” and the “Plasma Tmax for phenazopyridine (comparison)” value ([7]; Gly-PAP compared to phenazopyridine HCl) was “increased”. For the same molecule, the Observations of vomitus (dogs) was “single observation of vomitus”.
Molecule CSCC[C@H](N)C(=O)Nc1ccc(/N=N/c2ccccc2)c(N)n1 [Methionyl-PAP, Methionyl-Phenazopyridine] has a solubility [1] of 1000 µg/mL (≈ 2900 µM).
In the case of Nc1nc(NC(=O)OCc2ccccc2)ccc1/N=N/c1ccccc1 [Benzylcarbamyl-PAP, Benzylcarbamyl-Phenazopyridine], the solubility [1] is reported as < 100 µg/mL.
For NCCCC[C@H](N)C(=O)Nc1ccc(/N=N/c2ccccc2)c(N)n1 [Lysyl-PAP, Lysyl-Phenazopyridine], the solubility [1] was > 2500 µg/mL.
With CC(C)[C@H](N)C(=O)Nc1ccc(/N=N/c2ccccc2)c(N)n1 [Valyl-PAP, Valyl-Phenazopyridine] the solubility [1] was > 2500 µg/mL.
For CC(C)COC(=O)Nc1ccc(/N=N/c2ccccc2)c(N)n1 [Isobutylcarbamyl-PAP, Isobutylcarbamyl-Phenazopyridine], the solubility [1] was < 100 µg/mL and the “Tmax” value ([2]; rats, oral) was “longer”.
With C[C@H](N)C(=O)Nc1ccc(/N=N/c2ccccc2)c(N)n1 [Alanyl-PAP, Alanyl-Phenazopyridine] the solubility [1] was 2000 µg/mL (≈ 7030 µM).
With phenazopyridine hydrochloride [PAP•HCl] the “Solubility in 0.1N HCl” value [1] was 500 µg/mL, the Tmax ([2]; fasted rats, single oral gavage) was <60 min and the AUC0-24 ([2]; fasted rats, single oral gavage, 0-24 hr) was 182 ± 12 ng·h/mL. It also gave a Tmax [8] of 15 min, an AUC0-6 ([8]; SD printed in the row below) of 105 ng·h/mL and a Cmax ([8]; water vehicle (0.1N HCl for free base)) of 58 ng/mL. The “Plasma bioavailability of phenazopyridine” value ([7]; phenazopyridine HCl versus equivalent Gly-PAP) was “greater plasma bioavailability”, the Observations of vomitus (dogs) was “four observations of vomitus” and the “Tumour induction on long term administration” value (rats [9]) was “induced adenomas and adenocarcinomas in the large intestine”. For the same molecule, the “Tumour induction on lifetime administration” value (female mice) was “caused hepatocellular adenomas and carcinomas”.
